Assay results published in publication PMC4508061, “Selectivity Profiling and Biological Activity of Novel β-Carbolines as Potent and Selective DYRK1 Kinase Inhibitors” (PLoS ONE, 2015).
Like-named read-outs stand apart in the source and are kept apart here. Values belong to the compound of their own block, whether it stands above or below them.

How the values were obtained:
CLK1 [1] = target: T1, CLK1 (Homo sapiens, UniProt P49759); test: Kinase-GLO luminescent kinase assay; assay type: biochemical; parameters: made in house; host or cells: E. coli; details: 1 μM compound; means of at least 3 measurements
Method: (§1) Bacterial expression plasmids for GST-DYRK1A-ΔC and GST-DYRK2 have been described earlier. […] Expression in logarithmically growing E. coli culture was performed for 3 h at 37°C (GST-DYRK1A-ΔC and GST-DYRK2), 3 h at 26°C (GST-HIPK2cat), over night at 28°C (GST-CLK1cat) or over night at room temperature (GST-DYRK1Bcat).
(§2) Compounds were screened for inhibitory effects against GST-DYRK1A-ΔC, GST-DYRK1Bcat, GST-DYRK2, GST-CLK1cat or GST-HIPK2cat using the Kinase-GLO Luminescent Kinase Assay from Promega. Assays were performed in a total volume of 10 μL in kinase-buffer (25 mM Hepes pH 7.4, 0.5 mM DTT, 5 mM MgCl2, 5 μM ATP) with appropriate peptide substrates (20 μM DYRKtide for the DYRKs and 100 μM DYRKtide for HIPK2, […]; or 100 μM RS domain-derived peptide for CLK1, […]). Assays were started with this amount of a kinase preparation that consumed approximately 90% of the ATP in the assay (linear range of the kinase titration curve). The reactions were run at room temperature for 30 min before 10 μL Kinase-GLO reagent was added. After incubation at room temperature for additional 10 min, luminescence was recorded for 1 s.
Target sequence in this assay (P49759 141-484): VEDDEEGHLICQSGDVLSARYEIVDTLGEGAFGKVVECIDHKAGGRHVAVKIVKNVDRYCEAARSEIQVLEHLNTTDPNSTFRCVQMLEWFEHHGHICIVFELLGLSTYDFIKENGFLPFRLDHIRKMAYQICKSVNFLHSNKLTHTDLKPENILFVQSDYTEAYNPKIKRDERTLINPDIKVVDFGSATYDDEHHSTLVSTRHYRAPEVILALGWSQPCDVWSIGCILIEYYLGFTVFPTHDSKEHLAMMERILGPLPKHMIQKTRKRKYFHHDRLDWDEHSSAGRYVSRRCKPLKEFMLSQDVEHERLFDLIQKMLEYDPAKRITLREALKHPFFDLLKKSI

HIPK2 [2] = target: T2, HIPK2 (Homo sapiens, UniProt Q9H2X6); test: Kinase-GLO luminescent kinase assay; assay type: biochemical; parameters: made in house; host or cells: E. coli; details: 10 μM compound; means of at least 3 measurements
Method: as §1, §2
Target sequence in this assay (Q9H2X6 180-533): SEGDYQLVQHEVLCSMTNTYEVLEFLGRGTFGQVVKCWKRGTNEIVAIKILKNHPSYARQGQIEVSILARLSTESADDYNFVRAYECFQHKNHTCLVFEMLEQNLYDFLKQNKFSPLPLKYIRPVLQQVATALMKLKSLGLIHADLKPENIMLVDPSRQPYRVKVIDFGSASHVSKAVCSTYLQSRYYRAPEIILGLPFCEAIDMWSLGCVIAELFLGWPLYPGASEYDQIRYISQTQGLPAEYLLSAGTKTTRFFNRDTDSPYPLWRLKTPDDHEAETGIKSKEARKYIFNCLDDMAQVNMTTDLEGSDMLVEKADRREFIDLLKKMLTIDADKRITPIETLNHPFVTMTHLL

DYRK1B = DYRK1B (Homo sapiens, UniProt Q9Y463); test: Kinase-GLO luminescent kinase assay; assay type: biochemical; parameters: made in house; host or cells: E. coli; details: 1 μM compound; means of at least 3 measurements
Method: as §1, §2

DYRK1A [3] = target: T3, DYRK1A (Homo sapiens, UniProt Q13627); test: Kinase-GLO luminescent kinase assay; assay type: biochemical; details: 1 μM compound; means of at least 3 measurements
T3 construct: purchased ProQinase (Freiburg, Germany)
Method: as §1, §2

DYRK2 = target: T4, DYRK2 (Homo sapiens, UniProt Q92630); test: Kinase-GLO luminescent kinase assay; assay type: biochemical; details: 1 μM compound; means of at least 3 measurements
T4 construct: purchased ProQinase (Freiburg, Germany)
T4 sequence (Q92630 1-601): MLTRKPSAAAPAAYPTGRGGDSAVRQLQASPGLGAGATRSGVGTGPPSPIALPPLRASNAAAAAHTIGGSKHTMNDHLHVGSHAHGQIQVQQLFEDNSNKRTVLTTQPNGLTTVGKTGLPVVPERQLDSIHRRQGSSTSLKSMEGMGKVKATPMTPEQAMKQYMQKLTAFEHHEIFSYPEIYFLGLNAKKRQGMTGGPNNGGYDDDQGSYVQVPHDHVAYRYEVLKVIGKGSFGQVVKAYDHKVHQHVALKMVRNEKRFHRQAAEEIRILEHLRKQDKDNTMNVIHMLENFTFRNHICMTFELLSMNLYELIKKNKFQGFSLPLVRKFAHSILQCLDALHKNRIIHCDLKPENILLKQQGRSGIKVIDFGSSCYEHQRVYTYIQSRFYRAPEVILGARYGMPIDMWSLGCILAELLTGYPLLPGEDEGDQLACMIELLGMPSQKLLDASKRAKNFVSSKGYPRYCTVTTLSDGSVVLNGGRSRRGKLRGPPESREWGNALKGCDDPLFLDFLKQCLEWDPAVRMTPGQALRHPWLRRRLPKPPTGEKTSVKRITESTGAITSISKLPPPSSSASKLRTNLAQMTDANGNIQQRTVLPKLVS
Method: as §1, §2

Cell viability XTT assay [4] = assay type: cell-based; details: human, read-out: Viability of treated cells relative to untreated control
Cell viability XTT assay [5] = assay type: cell-based; details: human, read-out: Viability of treated cells relative to untreated control; remark: listed apart in the source
Cell viability XTT assay [6] = assay type: cell-based; details: rat, read-out: Viability of treated cells relative to untreated control; for viability at 3 days, 1 µM: PC12, 1 μM
SH-SY5Y cells = test: Cell viability XTT assay; assay type: cell-based; details: 3 days
HeLa cells = test: Cell viability XTT assay; assay type: cell-based; details: 3 days
PC12 cells = test: Cell viability XTT assay; assay type: cell-based; details: 3 days
PIM2 = PIM2 (Homo sapiens, UniProt Q9P1W9); parameters: purchased ProQinase (Freiburg, Germany); details: 10 μM; cited from earlier work
Chain of PIM2 (Q9P1W9 whole entry): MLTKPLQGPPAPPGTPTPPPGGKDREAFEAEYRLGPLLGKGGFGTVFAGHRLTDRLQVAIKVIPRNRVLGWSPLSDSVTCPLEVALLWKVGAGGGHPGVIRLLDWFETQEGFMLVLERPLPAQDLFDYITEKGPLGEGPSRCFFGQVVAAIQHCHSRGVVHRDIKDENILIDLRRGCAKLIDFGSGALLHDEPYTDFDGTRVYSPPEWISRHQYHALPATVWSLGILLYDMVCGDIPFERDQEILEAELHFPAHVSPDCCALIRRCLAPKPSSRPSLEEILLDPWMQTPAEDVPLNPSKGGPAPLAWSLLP

HIPK1 = HIPK1 (Homo sapiens, UniProt Q86Z02); parameters: purchased ProQinase (Freiburg, Germany); details: 10 μM; cited from earlier work
Chain of HIPK1 (Q86Z02 whole entry): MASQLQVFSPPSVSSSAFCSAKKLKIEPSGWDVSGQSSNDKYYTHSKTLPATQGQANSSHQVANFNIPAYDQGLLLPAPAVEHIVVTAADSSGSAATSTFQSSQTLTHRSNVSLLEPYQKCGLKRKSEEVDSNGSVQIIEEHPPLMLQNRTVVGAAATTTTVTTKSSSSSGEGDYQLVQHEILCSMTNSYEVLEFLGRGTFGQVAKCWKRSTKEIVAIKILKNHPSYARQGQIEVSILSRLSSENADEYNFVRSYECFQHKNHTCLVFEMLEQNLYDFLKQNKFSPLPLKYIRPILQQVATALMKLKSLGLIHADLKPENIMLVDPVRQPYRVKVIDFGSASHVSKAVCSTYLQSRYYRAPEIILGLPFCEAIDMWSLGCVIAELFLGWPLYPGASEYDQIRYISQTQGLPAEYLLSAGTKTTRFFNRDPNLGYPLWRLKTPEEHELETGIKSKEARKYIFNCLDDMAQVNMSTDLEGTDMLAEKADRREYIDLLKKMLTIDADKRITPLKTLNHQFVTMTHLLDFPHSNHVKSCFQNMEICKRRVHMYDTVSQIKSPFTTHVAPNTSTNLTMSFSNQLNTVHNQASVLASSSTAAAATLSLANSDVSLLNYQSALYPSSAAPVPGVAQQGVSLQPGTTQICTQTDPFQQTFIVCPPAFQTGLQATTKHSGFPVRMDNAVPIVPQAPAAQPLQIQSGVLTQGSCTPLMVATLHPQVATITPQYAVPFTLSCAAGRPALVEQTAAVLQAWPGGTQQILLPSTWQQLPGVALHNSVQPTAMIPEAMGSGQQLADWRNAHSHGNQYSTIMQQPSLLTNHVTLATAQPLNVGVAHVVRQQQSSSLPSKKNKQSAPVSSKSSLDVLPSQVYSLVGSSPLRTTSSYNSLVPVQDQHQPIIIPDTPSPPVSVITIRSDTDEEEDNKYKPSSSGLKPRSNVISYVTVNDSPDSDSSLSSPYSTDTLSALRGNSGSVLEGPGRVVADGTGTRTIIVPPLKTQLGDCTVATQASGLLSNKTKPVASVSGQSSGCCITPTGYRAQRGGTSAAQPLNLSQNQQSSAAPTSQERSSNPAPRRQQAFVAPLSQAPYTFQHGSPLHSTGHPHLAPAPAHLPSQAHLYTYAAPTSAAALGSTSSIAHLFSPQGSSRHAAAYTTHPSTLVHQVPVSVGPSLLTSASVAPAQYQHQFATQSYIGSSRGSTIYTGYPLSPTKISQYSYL

HIPK4 = target: T5, HIPK4 (Homo sapiens, UniProt Q8NE63); parameters: purchased ProQinase (Freiburg, Germany); details: 10 μM; cited from earlier work
T5 sequence (Q8NE63 1-616): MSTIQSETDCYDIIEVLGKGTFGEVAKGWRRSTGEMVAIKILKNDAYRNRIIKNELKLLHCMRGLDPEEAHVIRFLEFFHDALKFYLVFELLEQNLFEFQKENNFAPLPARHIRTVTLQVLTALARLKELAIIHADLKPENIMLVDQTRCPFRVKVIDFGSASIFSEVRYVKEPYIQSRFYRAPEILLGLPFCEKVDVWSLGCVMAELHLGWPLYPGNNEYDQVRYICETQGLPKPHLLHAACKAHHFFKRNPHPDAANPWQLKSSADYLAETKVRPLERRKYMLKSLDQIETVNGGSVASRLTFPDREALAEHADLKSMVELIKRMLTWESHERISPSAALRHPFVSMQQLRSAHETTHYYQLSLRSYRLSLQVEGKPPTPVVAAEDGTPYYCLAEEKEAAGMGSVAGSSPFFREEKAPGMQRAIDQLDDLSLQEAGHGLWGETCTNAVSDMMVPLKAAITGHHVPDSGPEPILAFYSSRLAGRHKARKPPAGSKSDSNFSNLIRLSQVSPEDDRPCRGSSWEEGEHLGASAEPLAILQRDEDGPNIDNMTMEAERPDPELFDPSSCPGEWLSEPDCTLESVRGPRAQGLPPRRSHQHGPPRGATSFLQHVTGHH

CLK3 = target: T6, CLK3 (Homo sapiens, UniProt P49761); details: 10 μM; cited from earlier work
T6 construct: purchased ProQinase (Freiburg, Germany)

DYRK1A [7] = details: 10 μM; cited from earlier work
PIM3 = PIM3 (Homo sapiens, UniProt Q86V86); parameters: purchased ProQinase (Freiburg, Germany); details: 10 μM; cited from earlier work
HIPK2 [8] = target: T2, HIPK2; parameters: purchased ProQinase (Freiburg, Germany); details: 10 μM; cited from earlier work
Target sequence in this assay (Q9H2X6 whole entry): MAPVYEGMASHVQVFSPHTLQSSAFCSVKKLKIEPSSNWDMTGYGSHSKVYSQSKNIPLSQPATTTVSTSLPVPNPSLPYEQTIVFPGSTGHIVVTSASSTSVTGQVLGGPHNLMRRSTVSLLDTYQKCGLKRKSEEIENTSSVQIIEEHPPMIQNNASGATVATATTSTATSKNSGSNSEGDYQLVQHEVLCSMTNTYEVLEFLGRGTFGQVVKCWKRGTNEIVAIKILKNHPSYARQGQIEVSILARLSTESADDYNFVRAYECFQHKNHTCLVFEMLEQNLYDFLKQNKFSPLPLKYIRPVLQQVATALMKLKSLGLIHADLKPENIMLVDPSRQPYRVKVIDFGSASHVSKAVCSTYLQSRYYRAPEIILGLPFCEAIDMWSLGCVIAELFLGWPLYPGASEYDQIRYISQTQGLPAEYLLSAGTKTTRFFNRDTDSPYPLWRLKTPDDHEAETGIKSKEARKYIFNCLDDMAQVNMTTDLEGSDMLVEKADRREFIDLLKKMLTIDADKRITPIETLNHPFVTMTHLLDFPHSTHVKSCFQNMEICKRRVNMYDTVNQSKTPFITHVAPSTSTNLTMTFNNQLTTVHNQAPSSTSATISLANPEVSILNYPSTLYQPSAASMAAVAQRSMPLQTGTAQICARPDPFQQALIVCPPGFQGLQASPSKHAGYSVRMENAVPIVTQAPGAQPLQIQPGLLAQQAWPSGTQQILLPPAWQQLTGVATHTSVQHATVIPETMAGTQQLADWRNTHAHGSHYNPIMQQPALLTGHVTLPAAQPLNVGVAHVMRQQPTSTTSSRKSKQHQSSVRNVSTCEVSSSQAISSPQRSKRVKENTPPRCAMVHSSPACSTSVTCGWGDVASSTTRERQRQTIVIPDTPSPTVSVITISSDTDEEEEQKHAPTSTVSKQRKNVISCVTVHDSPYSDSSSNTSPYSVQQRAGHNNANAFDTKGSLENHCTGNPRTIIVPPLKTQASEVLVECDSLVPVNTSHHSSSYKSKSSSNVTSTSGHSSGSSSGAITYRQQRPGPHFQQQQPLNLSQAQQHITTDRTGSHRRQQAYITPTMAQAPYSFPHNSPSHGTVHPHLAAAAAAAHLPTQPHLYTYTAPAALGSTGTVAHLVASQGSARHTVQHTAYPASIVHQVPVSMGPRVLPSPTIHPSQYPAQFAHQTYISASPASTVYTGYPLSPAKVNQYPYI

IRAK1 = IRAK1 (Homo sapiens, UniProt P51617); parameters: purchased ProQinase (Freiburg, Germany); details: 10 μM; cited from earlier work
Chain of IRAK1 (P51617 whole entry): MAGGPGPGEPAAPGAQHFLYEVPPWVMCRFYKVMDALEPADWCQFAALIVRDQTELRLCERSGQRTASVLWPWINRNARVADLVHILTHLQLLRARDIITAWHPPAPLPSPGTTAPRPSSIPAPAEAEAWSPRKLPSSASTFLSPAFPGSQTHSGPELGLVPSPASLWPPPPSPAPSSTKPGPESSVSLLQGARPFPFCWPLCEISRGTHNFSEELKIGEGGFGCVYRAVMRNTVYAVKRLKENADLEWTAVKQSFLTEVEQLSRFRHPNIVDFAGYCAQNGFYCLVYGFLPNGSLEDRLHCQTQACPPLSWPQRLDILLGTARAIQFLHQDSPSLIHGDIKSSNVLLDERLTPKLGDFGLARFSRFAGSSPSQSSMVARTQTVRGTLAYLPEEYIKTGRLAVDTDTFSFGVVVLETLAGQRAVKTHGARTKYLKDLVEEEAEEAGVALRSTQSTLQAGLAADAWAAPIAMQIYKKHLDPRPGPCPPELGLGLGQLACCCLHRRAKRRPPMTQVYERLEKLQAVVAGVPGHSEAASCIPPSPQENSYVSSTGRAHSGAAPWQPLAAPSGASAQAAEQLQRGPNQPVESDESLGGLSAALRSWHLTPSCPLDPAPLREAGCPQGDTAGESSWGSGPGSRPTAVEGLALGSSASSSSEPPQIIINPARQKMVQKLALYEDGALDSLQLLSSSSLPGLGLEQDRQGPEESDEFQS

CLK1 [9] = target: T1, CLK1; parameters: purchased ProQinase (Freiburg, Germany); details: 10 μM; cited from earlier work
Target sequence in this assay (P49759 whole entry): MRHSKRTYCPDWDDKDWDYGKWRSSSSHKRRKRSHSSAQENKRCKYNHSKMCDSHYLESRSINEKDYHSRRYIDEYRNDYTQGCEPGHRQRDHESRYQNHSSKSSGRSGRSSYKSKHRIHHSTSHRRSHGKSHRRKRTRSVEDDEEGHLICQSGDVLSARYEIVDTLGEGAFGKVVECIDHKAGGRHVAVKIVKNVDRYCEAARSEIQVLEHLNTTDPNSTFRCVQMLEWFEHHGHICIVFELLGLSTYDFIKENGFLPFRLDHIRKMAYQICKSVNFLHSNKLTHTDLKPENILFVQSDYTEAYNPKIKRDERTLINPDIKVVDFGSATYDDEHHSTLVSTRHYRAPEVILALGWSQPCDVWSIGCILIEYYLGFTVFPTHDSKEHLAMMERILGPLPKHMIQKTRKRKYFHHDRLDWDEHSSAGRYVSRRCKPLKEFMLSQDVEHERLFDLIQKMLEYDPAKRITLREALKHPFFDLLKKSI

PIM1 = PIM1 (Homo sapiens, UniProt P11309); parameters: purchased ProQinase (Freiburg, Germany); details: 10 μM; cited from earlier work
HIPK3 = HIPK3 (Homo sapiens, UniProt Q9H422); parameters: purchased ProQinase (Freiburg, Germany); details: 10 μM; cited from earlier work

Compound: Cc1nccc2c3ccc(Cl)c(Cl)c3n(CC#N)c12 [AnnH69]
Residual activity (% of control) CLK1 (CLK1 [1]): 33 % of control
Residual activity (% of control) HIPK2 (HIPK2 [2]): 33 % of control
Residual activity (% of control) DYRK1B (DYRK1B): 60 % of control
Residual activity (% of control) DYRK1A (DYRK1A [3]): 17 % of control
Residual activity (% of control) DYRK2 (DYRK2): 61 % of control

Compound: Nc1ncnc2c1c(I)cn2[C@@H]1O[C@H](CO)[C@@H](O)[C@H]1O [IoT, 5-iodotubercidin, reference compound]
Viability of treated cells relative to untreated control (SH-SY5Y cells; 1 μM): 13%
Viability of treated cells relative to untreated control (SH-SY5Y cells; 3 μM): 10%
Viability of treated cells relative to untreated control (SH-SY5Y cells; 10 μM): 15%
Viability of treated cells relative to untreated control (HeLa cells; 1 μM): 67%
Viability of treated cells relative to untreated control (HeLa cells; 3 μM): 16%
Viability of treated cells relative to untreated control (HeLa cells; 10 μM): 18%
Residual activity (% of control) CLK1 (CLK1 [1]): 4 % of control
Residual activity (% of control) HIPK2 (HIPK2 [2]): 20 % of control
Residual activity (% of control) DYRK1B (DYRK1B): 4 % of control
Viability of treated cells relative to untreated control (PC12 cells; PC12, 1 μM): 62%
Viability of treated cells relative to untreated control (PC12 cells; PC12, 3 μM): 17%
Viability of treated cells relative to untreated control (PC12 cells; PC12, 10 μM): 5%
Residual activity (% of control) DYRK1A (DYRK1A [3]): 13 % of control
Residual activity (% of control) DYRK2 (DYRK2): 10 % of control

Compound: O=C1NC(Nc2ccccc2)=N/C1=C\c1ccc2c(c1)OCO2 [L41]
Residual activity (% of control) (PIM2): 41 % of control
Residual activity (% of control) (HIPK1): 1 % of control
Residual activity (% of control) (HIPK4): 44 % of control
Residual activity (% of control) (CLK3): 2 % of control
Residual activity (% of control) (DYRK1A [7]): 0 % of control
Residual activity (% of control) (PIM3): 27 % of control
Residual activity (% of control) (HIPK2 [8]): 11 % of control
Residual activity (% of control) (IRAK1): 3 % of control
Residual activity (% of control) (CLK1 [9]): 0 % of control

Compound: CN1C(=O)/C(=C/c2ccc3c(c2)OCO3)N=C1N [Leucett-amine B, Leucettamine B]
Residual activity (% of control) (PIM2): 82 % of control
Residual activity (% of control) (PIM1): 73 % of control
Residual activity (% of control) (HIPK1): 34 % of control
Residual activity (% of control) (HIPK4): 91 % of control
Residual activity (% of control) (HIPK3): 45 % of control
Residual activity (% of control) (DYRK1A [7]): 2 % of control
Residual activity (% of control) (PIM3): 71 % of control
Residual activity (% of control) (HIPK2 [8]): 60 % of control
Residual activity (% of control) (IRAK1): 100 % of control

Compound: CN[C@@H]1C[C@H]2O[C@@](C)([C@@H]1OC)n1c3ccccc3c3c4c(c5c6ccccc6n2c5c31)C(=O)NC4 [Staurosporine, reference compound]
viability at 3 days, 1 µM (Cell viability XTT assay [4]; SH-SY5Y): 6%
viability at 3 days, 1 µM (Cell viability XTT assay [5]; HeLa): 8%
viability at 3 days, 1 µM (Cell viability XTT assay [6]): 18%

Further lines, with some results ahead:

Residual activity (% of control) CLK1 (CLK1 [1]): 58 % of control
Residual activity (% of control) HIPK2 (HIPK2 [2]): 95 % of control
Residual activity (% of control) DYRK1B (DYRK1B): 50 % of control
Residual activity (% of control) DYRK1A (DYRK1A [3]): 27 % of control
Residual activity (% of control) DYRK2 (DYRK2): 51 % of control
Compound: COc1ccc2c(c1)[nH]c1c(/C=C/c3ccccc3)nccc12 [AnnH18_5]

Residual activity (% of control) CLK1 (CLK1 [1]): 17 % of control
Residual activity (% of control) HIPK2 (HIPK2 [2]): 91 % of control
Residual activity (% of control) DYRK1B (DYRK1B): 44 % of control
Residual activity (% of control) DYRK2 (DYRK2): 63 % of control
Compound: COc1ccc2c(c1)[nH]c1c(Cl)nccc12 [AnnH24]
viability at 3 days, 1 µM (Cell viability XTT assay [4]; SH-SY5Y cells): 75%
viability at 3 days, 3 µM (Cell viability XTT assay [4]; SH-SY5Y cells, 3 μM): 66%
viability at 3 days, 10 µM (Cell viability XTT assay [4]; SH-SY5Y cells, 10 μM): 45%
viability at 3 days, 1 µM (Cell viability XTT assay [5]; HeLa cells): 97%
viability at 3 days, 3 µM (Cell viability XTT assay [5]; HeLa cells, 3 μM): 96%
viability at 3 days, 10 µM (Cell viability XTT assay [5]; HeLa cells, 10 μM): 72%
viability at 3 days, 1 µM (Cell viability XTT assay [6]; PC12 cells): 95%
viability at 3 days, 3 µM (Cell viability XTT assay [6]; PC12 cells, PC12, 3 μM): 90%
viability at 3 days, 10 µM (Cell viability XTT assay [6]; PC12 cells, PC12, 10 μM): 81%

Residual activity (% of control) CLK1 (CLK1 [1]): 44 % of control
Residual activity (% of control) HIPK2 (HIPK2 [2]): 96 % of control
Residual activity (% of control) DYRK1B (DYRK1B): 43 % of control
Residual activity (% of control) DYRK1A (DYRK1A [3]): 22 % of control
Residual activity (% of control) DYRK2 (DYRK2): 81 % of control
Compound: COc1ccc2c3ccnc(C)c3n(CCC#N)c2c1 [AnnH42]

Residual activity (% of control) CLK1 (CLK1 [1]): 34 % of control
Residual activity (% of control) HIPK2 (HIPK2 [2]): 74 % of control
Residual activity (% of control) DYRK1B (DYRK1B): 59 % of control
Residual activity (% of control) DYRK1A (DYRK1A [3]): 17 % of control
Residual activity (% of control) DYRK2 (DYRK2): 100 % of control
Compound: C#CCn1c2c(C)nccc2c2ccc(Cl)c(Cl)c21 [AnnH67]

Residual activity (% of control) CLK1 (CLK1 [1]): 46 % of control
Residual activity (% of control) HIPK2 (HIPK2 [2]): 97 % of control
Residual activity (% of control) DYRK1B (DYRK1B): 35 % of control
Residual activity (% of control) DYRK1A (DYRK1A [3]): 12 % of control
Residual activity (% of control) DYRK2 (DYRK2): 85 % of control
Compound: C#CCn1c2cc(OC)ccc2c2ccnc(Cl)c21 [AnnH74]
